From US9023865B2, “Compounds that are ERK inhibitors” (Merck Sharp & Dohme Corp., priority 2011, dated 2015)
Like-named read-outs stand apart in the source and are kept apart here.

What was measured:
[1] = target: Active Mouse ERK2 (mERK2) (Mus musculus (Mouse), UniProt P63085); test: Active Mouse ERK2 (mERK2) Activity Assay (IMAP-FP); format: biochemical
Description: Active Mouse ERK2 (mERK2) Activity Assay:
Activated ERK2 activity was determined in an IMAP-FP assay (Molecular Devices). […] Phosphorylation reactions were allowed to proceed for 45 minutes and were immediately quenched by the addition of 60 μL IMAP detection beads (1:1000 dilutions) in IMAP binding buffer (Molecular Devices) with 24 mM NaCl. Plates were read on EnVision reader after 60 minutes binding equilibration using Fluorescence Polarization protocol (Perkin Elmer).

[2] = target: Active Human ERK2 (hERK2) (Homo sapiens (Human), UniProt P28482); test: Active Human ERK2 (hERK2) Activity Assay (IMAP-FP); format: biochemical; details: phosphorylated active hERK2, 30 μM ATP; average; read-out: ERK 2 Human average IC50
Chain of Active Human ERK2 (hERK2) (P28482 whole entry): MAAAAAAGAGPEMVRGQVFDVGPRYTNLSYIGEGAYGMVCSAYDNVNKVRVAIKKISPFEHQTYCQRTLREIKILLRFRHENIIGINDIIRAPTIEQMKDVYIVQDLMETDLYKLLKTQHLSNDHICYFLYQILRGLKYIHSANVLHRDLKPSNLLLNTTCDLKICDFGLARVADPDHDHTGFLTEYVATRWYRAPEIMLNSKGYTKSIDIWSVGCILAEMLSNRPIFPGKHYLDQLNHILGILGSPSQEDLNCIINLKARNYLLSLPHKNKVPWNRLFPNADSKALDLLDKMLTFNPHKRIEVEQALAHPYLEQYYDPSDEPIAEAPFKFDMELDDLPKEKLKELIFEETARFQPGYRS
How it was run: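 Phosphorylation by activated human ERK2 (0.5 nM) at 30 μM ATP, peptide substrate 900 nM unlabeled with 80 nM labeled, proceeds 60 min. IMAP beads stop the reaction; after 60 min equilibration, product is measured by fluorescence polarization.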

[3] = phosphorylated active mERK2, 30 uM ATP, read-out: ERK 2 MAPK1 Mouse IC50
[4] = read-out: AERK2 IC50 (Active mouse ERK2 Activity Assay)

Chain of Active Mouse ERK2 (mERK2) (P63085 whole entry): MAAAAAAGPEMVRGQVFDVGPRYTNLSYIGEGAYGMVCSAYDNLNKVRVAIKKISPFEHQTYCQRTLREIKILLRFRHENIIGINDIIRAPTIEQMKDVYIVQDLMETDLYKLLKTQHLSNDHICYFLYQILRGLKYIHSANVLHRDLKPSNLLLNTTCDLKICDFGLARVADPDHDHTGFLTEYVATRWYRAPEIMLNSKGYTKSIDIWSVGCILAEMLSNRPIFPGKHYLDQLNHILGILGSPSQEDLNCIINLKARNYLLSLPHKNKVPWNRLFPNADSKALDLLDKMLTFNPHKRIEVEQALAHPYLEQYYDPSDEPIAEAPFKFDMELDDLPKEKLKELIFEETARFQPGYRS

| Structure (SMILES) | IC50 [1, 3] | IC50 [1, 4] | IC50 [2] |
| --- | --- | --- | --- |
| Cc1cc(-c2n[nH]c3cc(NC(=O)N[C@@H](C)c4ccc(F)cc4)ncc23)ccn1 [Example 11, 1-[(1S)-1-(4-fluorophenyl)ethyl]-3-[3-(2-methylpyridin-4-yl)-1H-pyrazolo[4,3-c]pyridin-6-yl]urea] | 0.152 nM | 0.1 to 1.2 nM | 0.342 nM |
| Cc1cc(-c2n[nH]c3cc(NC(=O)N[C@H](CO)c4ccccc4)ncc23)ccn1 [Example 15, 1-[(1S)-2-hydroxy-1-phenylethyl]-3-[3-(2-methylpyridin-4-yl)-1H-pyrazolo[4,3-c]pyridin-6-yl]urea] |  | 0.1 to 1.2 nM | 0.392 nM |
| Cc1cc(-c2n[nH]c3cc(NC(=O)N[C@H](C)c4ccc(Cl)cc4)ncc23)ccn1 [Example 19, 1-[(1R)-1-(4-chlorophenyl)ethyl]-3-[3-(2-methylpyridin-4-yl)-1H-pyrazolo[4,3-c]pyridin-6-yl]urea] | 0.296 nM | 0.1 to 1.2 nM | 0.556 nM |
| COCCCc1n[nH]c2cc(NC(=O)N[C@H](C)c3ccccc3)ncc12 [Example 21, (R)-1-(3-(3-methoxypropyl)-1H-pyrazolo[4,3-c]pyridin-6-yl)-3-(1-phenylethyl)urea] | 2.23 nM |  | 2.53 nM |
| CCCc1n[nH]c2cc(NC(=O)N[C@H](C)c3ccccc3)ncc12 [Example 22, (R)-1-(1-phenylethyl)-3-(3-propyl-1H-pyrazolo[4,3-c]pyridin-6-yl)urea] | 0.919 nM | 0.1 to 1.2 nM | 1.61 nM |
| Cc1cc(-c2n[nH]c3cc(NC(N)=O)ncc23)ccn1 [Example 23, 1-(3-(2-methylpyridin-4-yl)-1H-pyrazolo[4,3-c]pyridin-6-yl)urea] | 2.22 nM |  | 2 nM |

The remaining lines, values ahead:

| IC50 [1, 3] | IC50 [1, 4] | IC50 [2] | Structure (SMILES) |
| --- | --- | --- | --- |
| 682 nM |  | 836 nM | C[C@@H](NC(=O)Nc1cc2[nH]ncc2cn1)c1ccc(F)cc1 [Example 24, 1-[(1R)-1-(4-fluorophenyl)ethyl]-3-(1H-pyrazolo[4,3-c]pyridin-6-yl)urea] |
|  | 0.1 to 1.2 nM | 1.96 nM | C[C@@H](NC(=O)Nc1cc2[nH]nc(C3CC3)c2cn1)c1ccccc1 [Example 25, 1-(3-cyclopropyl-1H-pyrazolo[4,3-c]pyridin-6-yl)-3-[(1R)-1-phenylethyl]urea] |
| 0.457 nM | 0.1 to 1.2 nM | 0.513 nM | Cc1cc(-c2n[nH]c3cc(NC(=O)NCc4ccc(Cl)cc4)ncc23)ccn1 [Example 26, 1-(4-chlorobenzyl)-3-[3-(2-methylpyridin-4-yl)-1H-pyrazolo[4,3-c]pyridin-6-yl]urea] |
